Measurements: US5734012A, “Cyclic motilin-like polypeptides with gastrointestinal motor stimulating activity” (Ohmeda Pharmaceutical Products Division Inc., priority 1996, dated 1998)
Positions of bridges follow the written chain, without caps; N, C: chain ends. Non-standard residues stand in square brackets, D forms with d. Residues, ends and D or L forms follow the SMILES beside them. *: point of attachment. X1 = C[N+](C)(C)[C@@H](Cc1ccccc1)C(=O)*; NMeF = CN[C@@H](Cc1ccccc1)C(=O)O

Columns and labels:
[1] = In vitro stability testing in 2% hog kidney homogenate; type: in vitro ADME; conditions: pig, kidney or brush border membranes, pH 7
Protocol: Like most small linear polypeptides, motilin is believed to be metabolized by the brush border cells of the kidney. Therefore, kidney homogenate was chosen as the model system for assessing the relative in vivo biostability of the peptides of this invention. All peptides to be studied were incubated in hog kidney (Pel Freeze, Inc., Rogers, Ark.) (2% w/v; final volume=4 mls; buffer=HEPES pH 7.0) at 25° C. […] In order to determine suitable incubation times and sampling intervals, two experiments were conducted with each polypeptide. The first run served as a rough estimate of peptide stability. All sampling was performed in duplicate. Sample volume was 180 μl. Sample clean-up was performed by addition of 20 μl of 100% TCA (final volume=200 μl; final TCA concentration=10%). The sample was vortexed from 5 to 10 seconds to ensure equilibration, then centrifuged to spin out the precipitated proteins. Analysis was carried out on a Waters HPLC system with autoinjector, a 5 μVydac C-18 analytical column, and a Waters 481 UV detector set at 214 nm. Injection volume was 80 μl. Initial solvent conditions were 20% acetonitrile / 80% (0.1%) TFA in Milli-Q water with a 35 minute gradient running to 63% acetonitrile / 37% (0.1%) TFA at 1 ml/min. Polypeptide substrate and metabolite peaks were ratioed to the internal standard and the duplicate sample ratios were averaged. The average ratio for the peptide substrate was expressed as a percentage and plotted versus time. First-order kinetics was assumed for data treatment. The rate of disappearance of the substrate was calculated using the Enzfitter program (Biosoft). Relative half-lives were determined from the relationship: […]

[2] = target: rabbit duodenal smooth muscle strip (Oryctolagus cuniculus, UniProt G1T803); assay: Rabbit duodenal smooth muscle strip tissue bath assay (contractility); type: cell-based; conditions: negative logarithm of dose giving 50% of maximal response to motilin; isotonic contraction of rabbit duodenum segments
Sequence of rabbit duodenal smooth muscle strip (G1T803 1-400): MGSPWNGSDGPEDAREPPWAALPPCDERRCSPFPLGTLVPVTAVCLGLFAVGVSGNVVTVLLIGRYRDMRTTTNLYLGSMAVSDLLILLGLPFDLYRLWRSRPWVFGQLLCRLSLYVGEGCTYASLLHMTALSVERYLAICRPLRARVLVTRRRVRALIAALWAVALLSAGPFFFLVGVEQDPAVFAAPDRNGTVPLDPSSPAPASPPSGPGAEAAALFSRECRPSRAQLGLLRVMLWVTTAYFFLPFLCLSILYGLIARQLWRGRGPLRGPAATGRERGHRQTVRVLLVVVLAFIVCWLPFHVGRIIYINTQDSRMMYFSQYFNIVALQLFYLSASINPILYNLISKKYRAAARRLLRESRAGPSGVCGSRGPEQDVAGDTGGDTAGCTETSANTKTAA
Protocol: The experimental protocol consisted of an equilibration period of 1 hour; a challenge with 10^-4 M acetylcholine followed by a wash-out period; a cumulative dose-response curve of a compound with, at the end, the addition of 10^-7 M motilin; and finally 10^-4 M acetylcholine. If the final response to 10^-4 M acetylcholine differed by more than 5% from the initial response, the results were discarded.

motilin receptor = target: T1, motilin receptor (Oryctolagus cuniculus, UniProt G1T803); assay: Motilin receptor binding affinity (displacement of [125I-Tyr7,Nle13]motilin(porcine)); set-up: species or system rabbit; conditions: negative logarithm of concentration displacing 50% of [125I-Tyr7,Nle13]motilin(porcine) bound to rabbit antral smooth muscle membranes; read-out: pIC50 (converted)
T1 construct: from tissue; host or cells: rabbit antral smooth muscle membranes
T1 sequence (G1T803 1-400): as above
Protocol: The motilin receptor binding affinity of the peptides of this invention was determined by using the general procedure of Bormans, Peeters and Vantrappen, Regul. […] Fitting was performed using the iterative least-squares procedure of the SAS-software package (SAS Institute, Inc., Cary, N.C., USA).

[3] = in vivo; cited from earlier work

Molecule `CC[C@H](C)[C@H](NC(=O)[C@@H]1CCCN1C(=O)[C@@H](NC(=O)[C@H](Cc1ccccc1)NC)C(C)C)C(=O)N[C@@H](Cc1ccccc1)C(=O)N[C@H](C(=O)N[C@@H](Cc1ccc(O)cc1)C(=O)NCC(=O)N[C@@H](CCC(=O)O)C(=O)N[C@H]1CC(=O)NCCCC[C@@H](C(=O)N[C@@H](CCCCN)C(N)=O)NC(=O)[C@H](CC(C)C)NC(=O)[C@@H](CCCNC(=N)N)NC(=O)[C@H](C)NC1=O)[C@@H](C)O` [SEQ ID NO:12, cyclo^10,14 [N-MePhe^1,Asp^10,Ala^11,D-Arg^12,Leu^13,Lys^14,Lys^15]pMOT(1-15) amide] (H-[NMeF]VPIFTYGEDA[dR]LKK-NH2; lactam 10-14) has a half-life at 0.5 mg/ml [1] of 16 min, a pEC50 [2] of 7.81 and an IC50 (motilin receptor) of 1.74 nM.

Work on `CC[C@H](C)[C@H](NC(=O)[C@@H]1CCCN1C(=O)[C@@H](NC(=O)[C@H](Cc1ccccc1)NC)C(C)C)C(=O)N[C@@H](Cc1ccccc1)C(=O)N[C@H](C(=O)N[C@@H](Cc1ccc(O)cc1)C(=O)NCC(=O)N[C@@H](CCC(=O)O)C(=O)N[C@H]1CCC(=O)NCCCC[C@@H](C(=O)N[C@@H](CCCCN)C(N)=O)NC(=O)[C@H](CC(C)C)NC(=O)[C@@H](CCCNC(=N)N)NC(=O)[C@H](C)NC1=O)[C@@H](C)O` [SEQ ID NO:15, cyclo^10,14 [N-MePhe^1,Glu^10,Ala^11,D-Arg^12,Leu^13,Lys^14,Lys^15]pMOT(1-15) amide] (H-[NMeF]VPIFTYGEEA[dR]LKK-NH2; lactam 10-14) yielded a half-life at 0.5 mg/ml [1] of 39 min, a pEC50 [2] of 7.68 and an IC50 (motilin receptor) of 1.02 nM.

For `CC[C@H](C)[C@H](NC(=O)[C@@H]1CCCN1C(=O)[C@@H](NC(=O)[C@H](Cc1ccccc1)[N+](C)(C)C)C(C)C)C(=O)N[C@@H](Cc1ccccc1)C(=O)N[C@H](C(=O)N[C@@H](Cc1ccc(O)cc1)C(=O)NCC(=O)N[C@@H](CCC(=O)O)C(=O)N[C@H]1CC(=O)NCCCC[C@@H](C(N)=O)NC(=O)[C@H](CC(C)C)NC(=O)[C@H](CCCNC(=N)N)NC(=O)[C@H](C)NC1=O)[C@@H](C)O` [SEQ ID NO:16, cyclo^10,14 [Me3 N^+ Phe^1,Asp^10,Ala^11 Leu^13,Lys^14]pMOT(1-14) amide] (X1-VPIFTYGEDARLK-NH2; lactam 9-13), the half-life at 0.5 mg/ml [1] was 103 min, the pEC50 [2] was 6.98 and the IC50 (motilin receptor) was 2.24 nM.

With `CC[C@H](C)[C@H](NC(=O)[C@@H]1CCCN1C(=O)[C@@H](NC(=O)[C@H](Cc1ccccc1)NC)C(C)C)C(=O)N[C@@H](Cc1ccccc1)C(=O)N[C@H](C(=O)N[C@@H](Cc1ccc(O)cc1)C(=O)NCC(=O)N[C@@H](CCC(=O)O)C(=O)N[C@H]1CC(=O)NCCCC[C@@H](C(N)=O)NC(=O)[C@H](CC(C)C)NC(=O)[C@H](CCCNC(=N)N)NC(=O)[C@H](C)NC1=O)[C@@H](C)O` [SEQ ID NO:17, cyclo^10,14 [N-MePhe^1,Asp^10,Ala^11,Leu^13,Lys^14]pMOT(1-14) amide] (H-[NMeF]VPIFTYGEDARLK-NH2; lactam 10-14) the half-life at 0.5 mg/ml [1] was 31 min, the pEC50 [2] was 7.95 and the IC50 (motilin receptor) was 0.575 nM.

`CC[C@H](C)[C@H](NC(=O)[C@@H]1CCCN1C(=O)[C@@H](NC(=O)[C@H](Cc1ccccc1)[N+](C)(C)C)C(C)C)C(=O)N[C@@H](Cc1ccccc1)C(=O)N[C@H](C(=O)N[C@@H](Cc1ccc(O)cc1)C(=O)NCC(=O)N[C@@H](CCC(=O)O)C(=O)N[C@H]1CC(=O)NCCCC[C@@H](C(=O)N[C@@H](CCCCN)C(N)=O)NC(=O)[C@H](CC(C)C)NC(=O)[C@H](CCCNC(=N)N)NC(=O)[C@H](C)NC1=O)[C@@H](C)O` [SEQ ID NO:18, cyclo^10,14 [Me3 N^+ Phe^1,Asp^10,Ala^11,Leu^13,Lys^14,Lys^15]pMOT(1-15) amide] (X1-VPIFTYGEDARLKK-NH2; lactam 9-13) showed a half-life at 0.5 mg/ml [1] of 413 min, a pEC50 [2] of 7.72 and an IC50 (motilin receptor) of 1.78 nM.

`CC[C@H](C)[C@H](NC(=O)[C@@H]1CCCN1C(=O)[C@@H](NC(=O)[C@H](Cc1ccccc1)[N+](C)(C)C)C(C)C)C(=O)N[C@@H](Cc1ccccc1)C(=O)N[C@H](C(=O)N[C@@H](Cc1ccc(O)cc1)C(=O)NCC(=O)N[C@@H](CCC(=O)O)C(=O)N[C@H]1CC(=O)NCCCC[C@@H](C(=O)N[C@@H](CCCCN)C(N)=O)NC(=O)[C@H](CC(C)C)NC(=O)[C@@H](CCCNC(=N)N)NC(=O)[C@H](C)NC1=O)[C@@H](C)O` [SEQ ID NO:19, cyclo^10,14 [ME3 N^+ Phe^1,Asp^10,Ala^11,D-Arg^12,Leu^13,Lys^14,Lys^15]pMOT(1-15) amide] (X1-VPIFTYGEDA[dR]LKK-NH2; lactam 9-13) gave a half-life at 0.5 mg/ml [1] of 85 min, a pEC50 [2] of 7.72 and an IC50 (motilin receptor) of 2.88 nM.

With `CC[C@H](C)[C@H](NC(=O)[C@@H]1CCCN1C(=O)[C@@H](NC(=O)[C@H](Cc1ccccc1)[N+](C)(C)C)C(C)C)C(=O)N[C@@H](Cc1ccccc1)C(=O)N[C@H](C(=O)N[C@@H](Cc1ccc(O)cc1)C(=O)NCC(=O)N[C@@H](CCC(=O)O)C(=O)N[C@H]1CCC(=O)NCCCC[C@@H](C(=O)N[C@@H](CCCCN)C(N)=O)NC(=O)[C@H](CC(C)C)NC(=O)[C@@H](CCCNC(=N)N)NC(=O)[C@H](C)NC1=O)[C@@H](C)O` [SEQ ID NO:20, cyclo^10,14 [Me3 N^+ Phe^1,Glu^10,Ala^11,D-Arg^12,Leu^13,Lys^14,Lys^15]pMOT(1-15) amide] (X1-VPIFTYGEEA[dR]LKK-NH2; lactam 9-13) the half-life at 0.5 mg/ml [1] was 49 min, the pEC50 [2] was 7.34 and the IC50 (motilin receptor) was 1.55 nM.

Molecule `CC[C@H](C)[C@H](NC(=O)[C@@H]1CCCN1C(=O)[C@@H](NC(=O)[C@H](Cc1ccccc1)[N+](C)(C)C)C(C)C)C(=O)N[C@@H](Cc1ccccc1)C(=O)N[C@H](C(=O)N[C@@H](Cc1ccc(O)cc1)C(=O)NCC(=O)N[C@@H](CCC(=O)O)C(=O)N[C@H]1CCC(=O)NCCCC[C@@H](C(=O)N[C@@H](CCCCN)C(N)=O)NC(=O)[C@H](CC(C)C)NC(=O)[C@H](CCCNC(=N)N)NC(=O)[C@H](C)NC1=O)[C@@H](C)O` [SEQ ID NO:21, cyclo^10,14 [Me3 N^+ Phe^1,Glu^10,Ala^11,Leu^13,Lys^14,Lys^15]pMOT(1-15) amide] (X1-VPIFTYGEEARLKK-NH2; lactam 9-13) has a half-life at 0.5 mg/ml [1] of 267 min, a pEC50 [2] of 7.76 and an IC50 (motilin receptor) of 1.35 nM.

Molecule `CC[C@H](C)[C@H](NC(=O)[C@@H]1CCCN1C(=O)[C@@H](NC(=O)[C@H](Cc1ccccc1)NC)C(C)C)C(=O)N[C@@H](Cc1ccccc1)C(=O)N[C@H](C(=O)N[C@@H](Cc1ccc(O)cc1)C(=O)NCC(=O)N[C@@H](CCC(=O)O)C(=O)N[C@H]1CCC(=O)NCCCC[C@@H](C(N)=O)NC(=O)[C@H](CC(C)C)NC(=O)[C@H](CCCNC(=N)N)NC(=O)[C@H](CCC(N)=O)NC1=O)[C@@H](C)O` [SEQ ID NO:22, cyclo^10,14 [N-MePhe^1,Glu^10,Leu^13,Lys^14]pMOT(1-14) amide] (H-[NMeF]VPIFTYGEEQRLK-NH2; lactam 10-14) has a half-life at 0.5 mg/ml [1] of 35 min, a pEC50 [2] of 8.73 and an IC50 (motilin receptor) of 0.912 nM.

For `CC[C@H](C)[C@H](NC(=O)[C@@H]1CCCN1C(=O)[C@@H](NC(=O)[C@@H](N)Cc1ccccc1)C(C)C)C(=O)N[C@@H](Cc1ccccc1)C(=O)N[C@H](C(=O)N[C@@H](Cc1ccc(O)cc1)C(=O)NCC(=O)N[C@@H](CCC(=O)O)C(=O)N[C@@H](CC(C)C)C(=O)N[C@@H](CCC(N)=O)C(=O)N[C@@H](CCCNC(=N)N)C(=O)N[C@@H](CCSC)C(=O)N[C@@H](CCC(N)=O)C(=O)N[C@@H](CCC(=O)O)C(=O)N[C@@H](CCCCN)C(=O)N[C@@H](CCC(=O)O)C(=O)N[C@@H](CCCNC(=N)N)C(=O)N[C@@H](CC(N)=O)C(=O)N[C@@H](CCCCN)C(=O)NCC(=O)N[C@@H](CCC(N)=O)C(=O)O)[C@@H](C)O` [motilin], the “half-life (t1/2)” value [3] is listed as 4.5 min.
